Holding throughout (assay type): physicochemical
A short description of data set [1]: Competitive test of Form I and Form VI (suspension equilibration, XRPD check). The conditions noted are these: for Check result at 7 days (form of residual solid, XRPD): room temperature; for Check result at 21 days (form of residual solid, XRPD): 14 days RT then 40° C.; for Check result at 14 days (form of residual solid, XRPD): 7 days RT then 40° C. As to the method: X-ray powder diffraction (XRD) patterns were obtained on a Bruker D8 Advance. A CuK source (=1.54056 angstrom) operating minimally at 40 kV and 40 mA scans each sample between 4 and 40 degrees 2-theta. The step size is 0.05° C. and scan speed is 0.5 second per step.
Two polymorphic forms of the compound of Formula I, Form I and Form VI, were suspended at the ratio of 1:1 in various solvents and equilibrated at room temperature for a period of time. The forms of the residual solid were checked at 7 days. If still a mixed form, continued to equilibrate at room temperature or 40° C. The solvents were EtOAc, iPoAc, Acetone, MEK, EtOH, IPA, IPE, MTBE, Hexane and Heptane.
XRPD profiles were acquired at the beginning and end of the experiment and compared to XRPD patterns of the known forms.

Data set [2] is described as follows: Preliminary accelerated stability test of Form VI (HPLC, XRPD, DSC). The settings on record: for Assay % / Average assay (%) / Peak area % / Total impurity (%): solid; for Assay % / Average assay (%) / Peak area %: HPLC; for Total impurity (%): peak area normalized method. As to the method:
(§1) HPLCs were preformed using the following instrument and/or conditions.
(§2) Form VI of the compound of Formula I was used for the preliminary accelerated stability test. The samples were exposed to different stressed condition (40° C./75% RH and 60° C.) for 2 weeks. Standard controls were placed at −20° C. Samples and corresponding standard controls were pulled out for XRPD, DSC and HPLC analysis at 0 day, 1st week and 2nd week, respectively. The samples placed under condition without humidity were closed tightly with cap. The samples placed under humidity condition were just covered with aluminum foil with pinholes. HPLC steps were performed as described in Example 14.

A short description of data set [3]: Preliminary accelerated stability test of Form I, non-micronized and micronized (HPLC, XRPD, DSC). More on the design: RRT 1.09: unit not given here. The conditions noted are these: for Stability tested by HPLC, XRPD and DSC (degradation and crystal conversion): 40° C./75% RH and 60° C. for 2 weeks; for Assay % / Average Total impurity (%) / Average assay (%) / Peak area % / RRT 1.09 / Total impurity (%): solid, HPLC. As to the method:
as §1
as §2, with “Form” for “Form VI of the compound of Formula”, “I (both non-micronized and micronized)” for “I”

Several values for one entry are separate records, joined by “and”; a condition that tells them apart may be missing. Equal values may be shown once.

For `C=CC(=O)Nc1cccc(-c2cccc3cnc(Nc4ccc(N5CCN(CCO)CC5)c(F)c4F)nc23)c1` [Form I and Form VI, N-(3-(2-((2,3-difluoro-4-(4-(2-hydroxyethyl)piperazin-1-yl)phenyl)amino)quinazolin-8-yl)phenyl)acrylamide], the “Check result at 7 days (form of residual solid, XRPD)” value is “Form III and Form VI” in data set [1] (1:1 suspension in EtOH); “Form VI” in data set [1] (1:1 suspension in IPA); “Form I” in data set [1] (1:1 suspension in MEK); “Form I” in data set [1] (1:1 suspension in acetone). The “Check result at 21 days (form of residual solid, XRPD)” value in data set [1] (1:1 suspension in MTBE) was “Form I”; in data set [1] (1:1 suspension in heptane) it was “Mixed”; in data set [1] (1:1 suspension in hexane) it was “Mixed”; in data set [1] (1:1 suspension in isopropyl ether (IPE)), “Mixed”. In addition, the “Check result at 14 days (form of residual solid, XRPD)” value in data set [1] (1:1 suspension in ethyl acetate (EtOAc)) and in data set [1] (1:1 suspension in isopropyl acetate (iPoAc)) was “Form I” in each case.
For `C=CC(=O)Nc1cccc(-c2cccc3cnc(Nc4ccc(N5CCN(CCO)CC5)c(F)c4F)nc23)c1` [Form VI, N-(3-(2-((2,3-difluoro-4-(4-(2-hydroxyethyl)piperazin-1-yl)phenyl)amino)quinazolin-8-yl)phenyl)acrylamide], in data set [2] (40° C./75% RH and 60° C. for 2 weeks), the “Stability tested by HPLC, XRPD and DSC (degradation and crystal conversion)” value (from here on “Stability tested by HPLC, XRPD and DSC”) was “No significant degradation and crystal conversion were detected”. Further, the Assay % in data set [2] (40° C./75% RH, 7 days) is 91.50% and 91.85%; in data set [2] (40° C./75% RH, 14 days) it was 92.13% and 91.45%; in data set [2] (60° C., 7 days), 91.61% and 93.76%; in data set [2] (60° C., 14 days), 91.82% and 91.77%; in data set [2] (−20° C. (standard control)), 92.15% and 92.28%. The “Average assay (%)” value was 91.67% in data set [2] (40° C./75% RH, 7 days); 91.79% in data set [2] (40° C./75% RH, 14 days); 92.68% in data set [2] (60° C., 7 days); 91.80% in data set [2] (60° C., 14 days); 92.21% in data set [2] (−20° C. (standard control)). Also, the Peak area % in data set [2] (40° C./75% RH, 7 days) is 99.0% and 99.1%; in data set [2] (40° C./75% RH, 14 days) it was 99.0%; in data set [2] (60° C., 7 days), 98.9% and 99.0%; in data set [2] (60° C., 14 days), 99.0% and 99.1%; in data set [2] (−20° C. (standard control)), 99.0%. The “Total impurity (%)” value in data set [2] (40° C./75% RH, 7 days) is 0.98% and 0.95%; in data set [2] (40° C./75% RH, 14 days) it was 0.99% and 0.96%; in data set [2] (60° C., 7 days) it was 1.10% and 1.04%; in data set [2] (60° C., 14 days) it was 1.01% and 0.94%; in data set [2] (−20° C. (standard control)), 0.95% and 0.98%.
Regarding `C=CC(=O)Nc1cccc(-c2cccc3cnc(Nc4ccc(N5CCN(CCO)CC5)c(F)c4F)nc23)c1` [micronized Form I, N-(3-(2-((2,3-difluoro-4-(4-(2-hydroxyethyl)piperazin-1-yl)phenyl)amino)quinazolin-8-yl)phenyl)acrylamide], the “Stability tested by HPLC, XRPD and DSC” value in data set [3] is “No significant degradation and crystal conversion were detected”. For the same compound, in data set [3] (40° C./75% RH, 7 d), the Assay % was 97.67% and 97.30%; the “Average Total impurity (%)” value was found to be 0.86%; the “Average assay (%)” value is listed as 97.48%; the Peak area % is listed as 99.14%. In data set [3] (40° C./75% RH, 7 d), the “RRT 1.09” value was 0.029 and 0.024; the “Total impurity (%)” value was 0.86%. In data set [3] (40° C./75% RH, 14 d), the Assay % was 96.20% and 98.00%; the “Average Total impurity (%)” value stood at 0.88%; the “Average assay (%)” value turned out to be 97.10%; the Peak area % is 99.11% and 99.12%. Further, in data set [3] (40° C./75% RH, 14 d), the “RRT 1.09” value amounted to 0.028; the “Total impurity (%)” value is 0.89% and 0.88%. Further, in data set [3] (60° C., 7 d), the Assay % was 98.46% and 97.35%; the “Average Total impurity (%)” value turned out to be 0.85%; the “Average assay (%)” value turned out to be 97.90%; the Peak area % is 99.15%. For the same compound, in data set [3] (60° C., 7 d), the “RRT 1.09” value is 0.022 and 0.028; the “Total impurity (%)” value was found to be 0.85%. In data set [3] (60° C., 14 d), the Assay % is 98.52% and 98.23%; the “Average Total impurity (%)” value was determined as 0.87%; the “Average assay (%)” value worked out at 98.37%; the Peak area % is 99.12% and 99.13%. For the same compound, in data set [3] (60° C., 14 d), the “RRT 1.09” value is 0.027 and 0.028; the “Total impurity (%)” value was 0.88% and 0.87%. In data set [3] (RT), the Assay % was 98.74% and 98.36%; the “Average Total impurity (%)” value is reported as 0.84%; the “Average assay (%)” value is recorded as 98.55%; the Peak area % was 99.14% and 99.18%. In data set [3] (RT), the “RRT 1.09” value is 0.029 and 0.024; the “Total impurity (%)” value was 0.86% and 0.82%.
For the compound `C=CC(=O)Nc1cccc(-c2cccc3cnc(Nc4ccc(N5CCN(CCO)CC5)c(F)c4F)nc23)c1` [non-micronized Form I, N-(3-(2-((2,3-difluoro-4-(4-(2-hydroxyethyl)piperazin-1-yl)phenyl)amino)quinazolin-8-yl)phenyl)acrylamide], in data set [3], the “Stability tested by HPLC, XRPD and DSC” value is “No significant degradation and crystal conversion were detected”. Moreover, in data set [3] (40° C./75% RH, 7 d), the Assay % was 98.28% and 98.59%; the “Average Total impurity (%)” value was found to be 0.88%; the “Average assay (%)” value was 98.44%; the Peak area % was found to be 99.12%. Also, in data set [3] (40° C./75% RH, 7 d), the “RRT 1.09” value was 0.027 and 0.032; the “Total impurity (%)” value amounted to 0.88%. Further, in data set [3] (40° C./75% RH, 14 d), the Assay % was 98.24% and 97.53%; the “Average Total impurity (%)” value is recorded as 0.86%; the “Average assay (%)” value amounted to 97.88%; the Peak area % is 99.14%. For the same compound, in data set [3] (40° C./75% RH, 14 d), the “RRT 1.09” value is 0.026 and 0.027; the “Total impurity (%)” value worked out at 0.86%. Besides, in data set [3] (60° C., 7 d), the Assay % was 95.99% and 98.78%; the “Average Total impurity (%)” value is on record as 0.85%; the “Average assay (%)” value turned out to be 97.38%; the Peak area % was 99.15%. Besides, in data set [3] (60° C., 7 d), the “RRT 1.09” value is 0.030 and 0.028; the “Total impurity (%)” value is on record as 0.85%. In data set [3] (60° C., 14 d), the Assay % is 98.38% and 99.25%; the “Average Total impurity (%)” value is given as 0.85%; the “Average assay (%)” value was 98.81%; the Peak area % is 99.17% and 99.14%. In data set [3] (60° C., 14 d), the “RRT 1.09” value is recorded as 0.028; the “Total impurity (%)” value was 0.83% and 0.86%. In data set [3] (RT), the Assay % is 98.98% and 99.18%; the “Average Total impurity (%)” value is given as 0.84%; the “Average assay (%)” value stood at 99.08%; the Peak area % was 99.18% and 99.14%. In addition, in data set [3] (RT), the “RRT 1.09” value is recorded as 0.027; the “Total impurity (%)” value is 0.82% and 0.86%.

(Values after patent publication US11465975B2, “Certain chemical entities, compositions, and methods” (NeuPharma, Inc., priority 2018, dated 2022).)
